According to patent US7732440B2, “Phenothiazin derivatives, method for the production thereof and use thereof as pharmaceuticals” (Sanofi-Aventis, priority 2007, dated 2010):

Biological target: T1, Human glucokinase (Homo sapiens, UniProt P35557)
T1 construct: the glucokinase polypeptide beginning with Ser-6 is obtained; GST (N, cleaved yes); made in house; host or cells: E. coli BL21
T1 sequence (P35557 6-464 isoform P35557-3 limits assumed): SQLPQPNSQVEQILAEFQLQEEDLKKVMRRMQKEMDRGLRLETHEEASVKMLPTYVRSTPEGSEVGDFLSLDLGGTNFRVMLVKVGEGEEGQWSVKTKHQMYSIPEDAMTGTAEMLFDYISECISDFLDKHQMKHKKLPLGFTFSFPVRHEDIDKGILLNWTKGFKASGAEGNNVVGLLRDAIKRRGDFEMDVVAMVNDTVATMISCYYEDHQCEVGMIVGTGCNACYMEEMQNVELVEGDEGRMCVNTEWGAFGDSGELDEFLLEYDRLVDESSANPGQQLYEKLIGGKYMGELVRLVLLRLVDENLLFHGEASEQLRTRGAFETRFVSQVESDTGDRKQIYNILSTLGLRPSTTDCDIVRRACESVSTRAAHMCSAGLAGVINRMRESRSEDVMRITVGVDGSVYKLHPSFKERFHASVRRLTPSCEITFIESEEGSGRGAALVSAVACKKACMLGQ
Test: Enzymatic test of glucokinase activators (coupled optical test)
Format: biochemical
Conditions: 5 mM glucose; for Concentration raising glucokinase activity by 50% (EC150): concentration of test compound which increases the enzymatic activity by 50% (0 μM = 100%), 25° C., 1 mM ATP, pH 7; for Fold induction: maximum fold stimulation: highest change in extinction in the concentration range 0.1-100 μM relative to change without test substance
Text: Enzymatic Test of Glucokinase Activators
Human glucokinase is expressed as a fusion protein with glutathione S-transferase (GST) in E. coli BI21 and purified by affinity chromatography. […] is cleaved off by digestion with factor Xa, and the glucokinase polypeptide beginning with Ser-6 is obtained. The latter is purified chromatographically. At room temperature, a typical glucokinase preparation has a specific activity of 30 U/mg protein.
The activity of glucokinase and the effect of compounds on this activity are determined by a coupled optical test at 25° C. The test volume is 100 μl. The test composition is: 25 mM HEPES/NaOH (Merck; #110110) pH 7, 25 mM KCl (Merck; #04933), 2 mM MgCl2 (Merck; #05833), 1 mM dithiothreitol (Merck; #112013), 1 mM NAD (Sigma; #N1511), 5 mM glucose (Merck; #108337), 1 mM ATP (Sigma; #A2383), 0.1% (w/v) bovine serum albumin (Merck; #112018), 0.002 U glucokinase preparation and 3.2 U glucose 6-phosphate dehydrogenase (Sigma; #G8529). The mixture furthermore contains a test compound. The test compounds are in each case dissolved in 10 mM DMSO and are tested at final concentrations of 0 μM, 0.1 μM, 0.3 μM, 1 μM, 3 μM, 10 μM, 30 μM and 100 μM. The final concentration of DMSO in the test is 1% (v/v). The reaction is started by addition of ATP. The absorption of the mixture at 340 nm is determined immediately after the addition of ATP and then 25 min later using a multiwell plate photometer (from Labsystems, Multiskan Ascent). The change of the absorption during this period is calculated.
The crude data of the changes in extinction are transferred into a Microsoft Excel file. The value for 0 μM test compound is assigned to be 100%. Dose/activity curves are calculated using the program XL.Fit according to the instructions of the manufacturer (IDBS). The concentration of a test compound which increases the enzymatic activity by 50% is defined as EC150. The maximum fold stimulation corresponds to the ratio of the highest change in extinction in the concentration range of a test compound to the change of the absorption without test substance.

| Concentration raising glucokinase activity by 50% (EC150) [nM] | Fold induction | Structure (SMILES) |
| --- | --- | --- |
| 4200 | 2.0 | CN1c2ccccc2S(=O)(=O)c2ccc(C(CC3CCOCC3)C(=O)Nc3nccs3)cc21 (centres unmarked) [Example 1, 2-(10-Methyl-5,5-dioxo-5,10-dihydrophenothiazin-2-yl)-3-(tetrahydropyran-4-yl)-N-thiazol-2-ylpropionamide] |
| 2100 | 4.4 | CN1c2ccccc2S(=O)(=O)c2ccc(C(CC3CCOCC3)C(=O)Nc3ccn(C)n3)cc21 (centres unmarked) [Example 5, 2-(10-Methyl-5,5-dioxo-5,10-dihydrophenothiazin-2-yl)-N-(1-methyl-1H-pyrazol-3-yl)-3-(tetrahydropyran-4-yl)propionamide] |
| 15500 | 2.1 | Cc1ccc(NC(=O)C(CC2CCOCC2)c2ccc3c(c2)N(C)c2ccccc2S3(=O)=O)nn1 (centres unmarked) [Example 6, 2-(10-Methyl-5,5-dioxo-5,10-dihydrophenothiazin-2-yl)-N-(6-methylpyridazin-3-yl)-3-(tetrahydropyran-4-yl)propionamide] |
| 2200 | 2.8 | CN1c2ccccc2S(=O)(=O)c2ccc(C(CC3CCCC3)C(=O)Nc3nccs3)cc21 (centres unmarked) [Example 9, 3-Cyclopentyl-2-(10-methyl-5,5-dioxo-5,10-dihydrophenothiazin-2-yl)-N-thiazol-2-yl-propionamide] |
| 900 | 5.0 | COc1ccc2nc(NC(=O)C(CC3CCOCC3)c3ccc4c(c3)N(C)c3ccccc3S4(=O)=O)sc2n1 (centres unmarked) [Example 15, N-(5-Methoxy-thiazolo[5,4-b]pyridin-2-yl)-2-(10-methyl-5,5-dioxo-5,10-dihydrophenothiazin-2-yl)-3-(tetrahydropyran-4-yl)propionamide] |
| 500 | 4.0 | CN1c2ccccc2S(=O)(=O)c2ccc(C(CC3CCC(=O)CC3)C(=O)Nc3ccn(C)n3)cc21 (centres unmarked) [Example 36, 2-(10-Methyl-5,5-dioxo-5,10-dihydrophenothiazin-2-yl)-N-(1-methyl-1H-pyrazol-3-yl)-3-(4-oxocyclohexyl)propionamide] |
| 700 | 3.9 | COc1ccc2nc(NC(=O)C(C[C@H]3CCC(=O)C3)c3ccc4c(c3)N(C)c3ccccc3S4(=O)=O)sc2n1 (stereo partly drawn) [Example 41, N-(5-Methoxythiazolo[5,4-b]pyridin-2-yl)-2-(10-methyl-5,5-dioxo-5,10-dihydrophenothiazin-2-yl)-3-((R)-3-oxocyclopentyl)propionamide] |
| 1200 | 3.6 | CCOC(=O)c1ccc2c(c1)S(=O)(=O)c1ccc(C(CC3CCC(=O)C3)C(=O)Nc3ccn(C)n3)cc1N2C (centres unmarked) [Example 42, Ethyl 10-methyl-8-[1-(1-methyl-1H-pyrazol-3-ylcarbamoyl)-2-(3-oxocyclopentyl)-ethyl]-5,5-dioxo-5,10-dihydrophenothiazine-3-carboxylate] |
| 600 | 5.0 | Cn1ccc(NC(=O)C(C[C@H]2CCC(=O)C2)c2ccc3c(c2)Nc2ccccc2S3(=O)=O)n1 (stereo partly drawn) [Example 46, 2-(5,5-Dioxo-5,10-dihydrophenothiazin-2-yl)-N-(1-methyl-1H-pyrazol-3-yl)-3-((R)-3-oxocyclopentyl)propionamide] |
| 1000 | 4.5 | Cn1ccc(NC(=O)C(CC2CC=C(F)CC2)c2ccc3c(c2)Nc2ccccc2S3(=O)=O)n1 (centres unmarked) [Example 54, 2-(5,5-Dioxo-5,10-dihydrophenothiazin-2-yl)-3-(4-fluorocyclohex-3-enyl)-N-(1-methyl-1H-pyrazol-3-yl)propionamide] |
